The results in this text go back to PMC6331810, “Novel Coumarin-Containing Aminophosphonatesas Antitumor Agent: Synthesis, Cytotoxicity, DNA-Binding and Apoptosis Evaluation” (Molecules, 2015).

Assay [1] deals with MGC-803 (human lung adenocarcinoma cell line). The experiment in a line: MTT cytotoxicity assay, MGC-803. The assay is classed as cell-based. The settings on record: 48 h, no irradiation, mean ± SD of three experiments. The method, then:
(§1) Cell Lines. The following in vitro human cancer cell lines were used: HCT-116 (Human colorectal cells), human KB (human nasopharyngeal carcinoma cells), MGC-803 (human lung adenocarcinoma cell line), HUVEC (Human Umbilical Vein Endothelial Cells). The cell lines (HCT-116, KB, MGC-803 and HUVEC) were purchased from the Cell Resource Center of Shanghai Institutes for Biological Sciences, the Academy of Sciences of China.
(§2) Cell Culture. HCT-116, human KB, MGC-803 and HUVEC cells were cultured in Dulbecco Modified Eagle Medium (DMEM; HyClone, Los Angeles, CA, USA), containing 4.0 mM L-Glutamine and 4500 mg/L Glucose, supplemented with 10% (v/v) foetalbovine serum (FBS; HyClone). The cell culturemedia was supplemented with penicillin/streptomycin at 100 Units/mL as adherent monolayers. Cell cultures were kept in a humidified incubator with 5% CO2 at 37 °C. Stock solutions were prepared in dimethyl sulfoxide (DMSO) and further dilutions were made with fresh culture medium. The concentration of DMSO in the final culture medium was 1%, which had no effect on the cell viability.
(§3) MTT Assay. Chemosensitivity was assessed using 3-(4,5-dimethylthiazol-2-yl)-2,5-diphenyl tetrazolium bromide (MTT) assay. Briefly, exponentially growing HCT-116 (3000–4000 cells/well), human KB (2000–3000 cells/well) and MGC 803 (2000–3000 cells/well) were seeded into 96-well plates and treated with indicated concentrations of samples for 48 h, and then […] of MTT (10 mg/mL) was added. After incubation for 4 h at 37 °C, the purple formazan crystals (i.e., a reduced form of MTT) generated from viable cells were dissolved by adding 100 μL DMSO in each well. The plates were swirled gently for 10 min to dissolve the precipitate, and quantified by measuring the optical density (OD) of the plates at a wavelength of 490 nm on plate reader (TECAN infinite M1000). Each concentration was repeated in three wells and the same experimental conditions were provided for all compounds and MTT analysis was repeated three times for each cell line.
(Tetrazolium dyes change colour on reduction, which living cells bring about.)

The next assay concerns GelRed/CT-DNA. In words: GelRed-DNA competitive binding (fluorescence quenching). More on the design: species or system calf. The settings on record: I0/I vs [Q]; [GelRed]/[DNA] = 1:10, ex 350 nm, em 590 nm.
Assay [2] relates to CT-DNA. In words: Spectrofluorimetric titration with CT-DNA (Stern-Volmer and binding constants). The settings on record: from F0/F-1 vs [DNA]; Tris-HCl buffer pH 7.2. More on the design: species or system calf. The method, then:
The DNA binding properties of compounds 8a–8j were evaluated based on their affinity or interaction with CT-DNA, measured with fluorescence spectrometric titration.
The calibration curve for determination of DNA was constructed by adding different proportion of DNA to a 2.0 × 10^−3 M compound 8j solution (pH = 7.2 Tris-HCl buffer). […] [Q] is the concentration of quencher. KSV is the Stern-Volmer constant and KQ is the bimolecular quenching rate constant. τ0 is the lifetime of the fluorophore in the absence of quencher and for most biomolecules τ0 is about 10^−8 s. The Stern-Volmer constant, KSV, for compound 8j has been determined from the plot of F0/F-1 vs. [DNA] (see Figure 2) and found to be 5.11 × 10^2 M^−1.
When small molecules binding independently to a set of equivalent sites on a macromolecule, the equilibrium between free and bound molecules is given by the equation [28]: (2) lg (F0/F-1) = lgKb + nlg[Q] where Kb and n are the binding constant and the number of binding sites, respectively, which could be got from the curve of lg(F0/F-1) vs. lg[Q]. The plot of lg(F0/F-1) vs. lg[DNA] has been shown in Figure 3 for compound 8j and indicates a simple binding process for the compound.
All fluorescence experiments were carried out on a Perkin-Elmer LS50B luminescence spectrometer. Fluorescence spectra were measured at rt using quartz cells of 1cm path. To the solutions of the drugs (2.0 × 10^−3 M) in 2.5 mL Tris-HCl buffer (pH = 7.2) were added aliquots of CT-DNA (2.0 × 10^−3 M) solution containing drugs (2.0 × 10^−3 M) in 2.5 mL Tris-HCl buffer (pH = 7.2). This operation ensured that the concentration of CT-DNA increased gradually from 0 to 360 µM, while the concentrations of drugs were kept constant. The mixing was achieved by stirring for 10min. Then, the corresponding fluorescence spectra were measured (ex 325 nm, ex/em 1.5 nm/1.5 nm). Binding constants were derived from the modified.

For assay [3], the system named is CT-DNA. The experiment in a line: Circular dichroism spectra of CT-DNA. The assay is classed as binding, calf. As to conditions: [compound]/[DNA] 1:10; 1.5 × 10^−4 M DNA, 1.5 × 10^−5 M compound. Here is the method:
CD absorption spectra of DNA were measured in TBS at a 100 nm/min scan rate in the wavelength range from 200 to 500 nm, with 1.5 × 10^−4 M DNA in the absence and presence of each compound of 1.5 × 10^−5 M, respectively. The CD signal of TBS was taken as the background and subtracted from the spectra. All the spectroscopic experiments were performed at 25 °C.
(In general: CD spectra are sensitive to the conformation of chiral molecules.)

In assay [4] the test system is HUVEC (Human Umbilical Vein Endothelial Cells). In words: MTT cytotoxicity assay, HUVEC normal cells. The assay is classed as cell-based. As to conditions: no irradiation, mean ± SD of three experiments. Here is the method: as §1, §2, §3
In assay [5] the test system is HCT-116 (Human colorectal cells). In words: MTT cytotoxicity assay, HCT-116. As to conditions: MTT, 48 h, no irradiation, mean ± SD of three experiments. The class given is cell-based. The method, then:
as §1, §2, §3

For orientation: IC50 means the concentration that inhibits the measured activity by half. Lower therefore signals inhibition by little substance. In the case of `CCOP(=O)(OCC)C(NC(=O)CCOc1ccc2c(C)cc(=O)oc2c1)c1ccccc1OC` (stereo not shown) [Compound 8h, Diethyl(3-(4-methyl-2-oxo-2H-chromen-7-yloxy)propanamido)(2-methoxyphenyl)methylphos-phonate], the results for the IC50 in assay [1], in assay [4] and in assay [5] were 36.9 ± 1.96 µM, > 100 µM and 23.7 ± 5.89 µM, respectively. Moreover, the “Kq (quenching constant of GelRed bound to DNA)” value in the assay with GelRed/CT-DNA was determined as 2410 M⁻¹. Also, the “KSV (Stern-Volmer constant)” value with CT-DNA [2] worked out at 357 M⁻¹. For the same compound, in the assay on CT-DNA [3], the “Negative AI decrease (CD absorption peak of CT-DNA at 247 nm)” value is recorded as 28.5%. For the same compound, the “Positive AI decrease (CD absorption peak of CT-DNA at 281 nm)” value in the assay on CT-DNA [3] is 34.5%.
